Data taken from patent publication US7276510B2, “HIV replication inhibitors” (Janssen Pharmaceutica, Inc., priority 2000, dated 2007).

Experiments:
[1] = system: HIV-infected MT-4 cells; assay: Inhibition of the HIV-induced cytopathic effect in MT-4 cells (MTT); format: cell-based; conditions: read-out: IC50 (50% inhibitory concentration; dose achieving 50% protection); HIV-infected MT-4 cells, MTT, OD 540 nm
Protocol: (§1) A rapid, sensitive and automated assay procedure was used for the in vitro evaluation of anti-HIV agents. An […] T4-cell line, MT-4, which was previously shown (Koyanagi et al., Int. J. Cancer, 36, 445-451, 1985) to be highly susceptible to and permissive for HIV infection, served as the target cell line. Inhibition of the HIV-induced cytopathic effect was used as the end point. The viability of both HIV- and mock-infected cells was assessed spectrophotometrically via the in situ reduction of 3-(4,5-dimethylthiazol-2-yl)-2,5-diphenyltetrazolium bromide (MTT). […] The percent protection achieved by the compound in HIV-infected cells was calculated by the following formula:
(§2) [formula] whereby (ODT)HIV is the optical density measured with a given concentration of the test compound in HIV-infected cells; (ODC)HIV is the optical density measured for the control untreated HIV-infected cells; (ODC)MOCK is the optical density measured for the control untreated mock-infected cells; all optical density values were determined at 540 nm. […] The ratio of CC50 to IC50 was defined as the selectivity index (SI).

[2] = system: mock-infected MT-4 cells; assay: Cytotoxicity in mock-infected MT-4 cells (MTT); format: cell-based; conditions: read-out: CC50 (50% cytotoxic concentration), OD 540 nm
Protocol: as §1, §2

Row | SMILES | IC50 [1] [µM] | CC50 [2] [µM]
1 | N#Cc1ccc(Nc2nc(Cl)nc(Nc3c(Cl)cc(Cl)cc3Cl)n2)cc1 [Compound 85] | 0.02 | 50.1
2 | Cc1cc(Cl)cc(Cl)c1Nc1nc(Cl)nc(Nc2ccc(C#N)cc2)n1 [Compound 109] | 0.00398 | 12.6
